Values joined by “and” are separate entries in the source; they are usually repeats but may differ in a detail not shown here. Equal values may be shown once. Inconclusive results and toxic doses are left out. No stated cut-off is given here; in the data, active means T/C of 150% or more; inactive means T/C below 125%.
Test system: L1210 leukemia ip in BDF1 mice, survival T/C
Test: NCI In Vivo Anticancer Drug Screen. Data for tumor model L1210 Leukemia (intraperitoneal) in B6D2F1 (BDF1) mice
Conditions: endpoint: mean survival time, higher = longer survival
How it was run: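 Transplanted-tumor mice were given test agent; controls received vehicle only. Survival readings from the two groups were divided (treated over control).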

[1] = dose: 100.0 mg/kg/injection, schedule: Q01DX009 (ip), vehicle: Klucel (hydroxypropylcellulose) (HPC)
[2] = dose: 100.0 mg/kg/injection, schedule: Q04DX002 (ip), vehicle: Klucel (hydroxypropylcellulose) (HPC)
[3] = dose: 100.0 mg/kg/injection, schedule: Q04DX003 (ip), vehicle: Klucel (hydroxypropylcellulose) (HPC)
[4] = dose: 200.0 mg/kg/injection, schedule: Q01DX009 (ip), vehicle: Klucel (hydroxypropylcellulose) (HPC)
[5] = dose: 200.0 mg/kg/injection, schedule: Q04DX002 (ip), vehicle: Klucel (hydroxypropylcellulose) (HPC)
[6] = dose: 200.0 mg/kg/injection, schedule: Q04DX003 (ip), vehicle: Klucel (hydroxypropylcellulose) (HPC)
[7] = dose: 400.0 mg/kg/injection, schedule: Q04DX003 (ip), vehicle: Klucel (hydroxypropylcellulose) (HPC)
[8] = dose: 100.0 mg/kg/injection, schedule: Q01DX001 (ip), vehicle: saline
[9] = dose: 200.0 mg/kg/injection, schedule: Q01DX001 (ip), vehicle: saline
[10] = dose: 400.0 mg/kg/injection, schedule: Q01DX001 (ip), vehicle: saline
[11] = dose: 400.0 mg/kg/injection, schedule: Q01DX009 (ip), vehicle: Klucel (hydroxypropylcellulose) (HPC)

Measured: T/C

CCCCCCCCCCCCO[P+](=O)OCCCCCCCCCCCC
inactive: dose: 100.0 mg/kg/injection, schedule: Q01DX009 (ip), vehicle: saline sonified 93 % of control | dose: 100.0 mg/kg/injection, schedule: Q04DX003 (ip), vehicle: saline 95 % of control | dose: 200.0 mg/kg/injection, schedule: Q01DX009 (ip), vehicle: saline sonified 93 % of control | dose: 200.0 mg/kg/injection, schedule: Q04DX003 (ip), vehicle: saline 100 % of control | dose: 222.0 mg/kg/injection, schedule: Q01DX Z (ip), vehicle: methylcellulose (MC) 96 % of control | dose: 333.0 mg/kg/injection, schedule: Q01DX Z (ip), vehicle: methylcellulose (MC) 95 % of control | dose: 400.0 mg/kg/injection, schedule: Q04DX003 (ip), vehicle: saline 90 % of control

Cc1cc(=O)oc2cc(OC(=O)Nc3ccccc3)ccc12
inactive: dose: 100.0 mg/kg/injection, schedule: Q01DX001 (ip), vehicle: Klucel (hydroxypropylcellulose) (HPC) 93 % of control | [1] 94 % of control and 105 % of control | [2] 108 % of control and 118 % of control | [3] 105 % of control | dose: 200.0 mg/kg/injection, schedule: Q01DX001 (ip), vehicle: Klucel (hydroxypropylcellulose) (HPC) 104 % of control | [4] 98 % of control | [5] 112 % of control and 92 % of control | [6] 100 % of control | dose: 400.0 mg/kg/injection, schedule: Q01DX001 (ip), vehicle: Klucel (hydroxypropylcellulose) (HPC) 108 % of control | [7] 92 % of control

O=C(O)C1C(c2ccccc2)CC(=O)N1c1ccc(Cl)cc1 (stereo not drawn)
inactive: [2] 102 % of control | [5] 91 % of control | dose: 400.0 mg/kg/injection, schedule: Q04DX002 (ip), vehicle: Klucel (hydroxypropylcellulose) (HPC) 94 % of control

Cc1ccnc(NS(=O)(=O)c2ccc(N=Nc3c(N)[nH]c(=O)[nH]c3=O)cc2)n1
inactive: [8] 100 % of control | [9] 102 % of control | [10] 105 % of control

O=C1C=C(NCCc2cnc[nH]2)c2ccccc2C1=O
inactive: dose: 50.0 mg/kg/injection, schedule: Q01DX009 (ip), vehicle: Klucel (hydroxypropylcellulose) (HPC) 92 % of control | [1] 103 % of control

O=C(CCCCCCC(=O)C[N+]12CCC(CC1)C(O)C2)C[N+]12CCC(CC1)C(O)C2 (stereo not drawn)
inactive: dose: 0.15 mg/kg/injection, schedule: Q04DX003 (ip), vehicle: saline 102 % of control | dose: 0.3 mg/kg/injection, schedule: Q04DX003 (ip), vehicle: saline 100 % of control | dose: 0.6 mg/kg/injection, schedule: Q04DX003 (ip), vehicle: saline 102 % of control

O=C1CCCC/C1=C/c1ccccc1
inactive: [1] 102 % of control and 112 % of control | [3] 97 % of control and 96 % of control | [4] 102 % of control | [6] 104 % of control and 101 % of control | [11] 102 % of control and 96 % of control | [7] 104 % of control and 100 % of control

COC1=C(N)C(=O)c2ncccc2C1=O
inactive: dose: 4.0 mg/kg/injection, schedule: Q01DX009 (ip), vehicle: acetone 105 % of control | dose: 8.0 mg/kg/injection, schedule: Q01DX009 (ip), vehicle: acetone 105 % of control | dose: 16.0 mg/kg/injection, schedule: Q01DX009 (ip), vehicle: acetone 102 % of control

O=CC12C=CC(CC1)C1C(=O)OC(=O)C12 (stereo not drawn)
inactive: dose: 75.0 mg/kg/injection, schedule: Q01DX009 (ip), vehicle: saline 112 % of control | [8] 91 % of control | dose: 150.0 mg/kg/injection, schedule: Q01DX009 (ip), vehicle: saline 97 % of control | [9] 98 % of control | dose: 300.0 mg/kg/injection, schedule: Q01DX009 (ip), vehicle: saline 91 % of control | [10] 96 % of control

CCCC(C)OS(=O)(=O)c1ccc(C)cc1 (stereo not drawn)
inactive: dose: 100.0 mg/kg/injection, schedule: Q01DX009 (ip), vehicle: saline 104 % of control | dose: 100.0 mg/kg/injection, schedule: Q04DX002 (ip), vehicle: saline with Tween-80 97 % of control | dose: 200.0 mg/kg/injection, schedule: Q01DX009 (ip), vehicle: saline 96 % of control | dose: 200.0 mg/kg/injection, schedule: Q04DX002 (ip), vehicle: saline with Tween-80 93 % of control | dose: 400.0 mg/kg/injection, schedule: Q01DX009 (ip), vehicle: saline 102 % of control | dose: 400.0 mg/kg/injection, schedule: Q04DX002 (ip), vehicle: saline with Tween-80 97 % of control

CCOC(=O)C(CCP(=O)(OCC)OCC)P(=O)(OCC)OCC (stereo not drawn)
inactive: dose: 12.5 mg/kg/injection, schedule: Q04DX002 (ip), vehicle: saline 99 % of control | dose: 25.0 mg/kg/injection, schedule: Q04DX002 (ip), vehicle: saline 96 % of control | dose: 50.0 mg/kg/injection, schedule: Q04DX002 (ip), vehicle: saline 115 % of control | [8] 101 % of control | [9] 95 % of control | [10] 98 % of control

NC(N)=Nc1ccc(C(=O)Oc2ccc(OC(=O)c3cccc(N=C(N)N)c3)cc2)cc1
inactive: dose: 50.0 mg/kg/injection, schedule: Q01DX009 (ip), vehicle: water 96 % of control | dose: 50.0 mg/kg/injection, schedule: Q04DX003 (ip), vehicle: water 90 % of control | dose: 100.0 mg/kg/injection, schedule: Q01DX009 (ip), vehicle: water 98 % of control | dose: 100.0 mg/kg/injection, schedule: Q04DX003 (ip), vehicle: water 93 % of control and 97 % of control | dose: 200.0 mg/kg/injection, schedule: Q01DX009 (ip), vehicle: water 92 % of control | dose: 200.0 mg/kg/injection, schedule: Q04DX003 (ip), vehicle: water 98 % of control and 100 % of control | dose: 400.0 mg/kg/injection, schedule: Q04DX003 (ip), vehicle: water 93 % of control and 95 % of control

CC(=O)[O][Pb]([CH3])([CH3])[CH3]
inactive: dose: 5.0 mg/kg/injection, schedule: Q01DX001 (ip), vehicle: carboxymethylcellulose (CMC) 110 % of control | dose: 10.0 mg/kg/injection, schedule: Q01DX001 (ip), vehicle: carboxymethylcellulose (CMC) 103 % of control

COc1cc(OC)c(NC(=S)Nc2ccc([N+](=O)[O-])cc2)cc1Cl
inactive: dose: 50.0 mg/kg/injection, schedule: Q01DX009 (ip), vehicle: saline with Tween-80 92 % of control | dose: 100.0 mg/kg/injection, schedule: Q01DX009 (ip), vehicle: saline with Tween-80 88 % of control | dose: 200.0 mg/kg/injection, schedule: Q01DX009 (ip), vehicle: saline with Tween-80 90 % of control

C/C(CC(C)C)=N\NC(=O)Nc1ccccc1Cl
inactive: dose: 100.0 mg/kg/injection, schedule: Q01DX009 (ip), vehicle: other 102 % of control | dose: 200.0 mg/kg/injection, schedule: Q01DX009 (ip), vehicle: other 89 % of control | dose: 400.0 mg/kg/injection, schedule: Q01DX009 (ip), vehicle: other 102 % of control

CSc1ccc(C(=O)Nc2c(N)ncnc2N)cc1
inactive: dose: 25.0 mg/kg/injection, schedule: Q01DX001 (ip), vehicle: saline 97 % of control | dose: 50.0 mg/kg/injection, schedule: Q01DX001 (ip), vehicle: saline 87 % of control | dose: 100.0 mg/kg/injection, schedule: Q01DX001 (ip), vehicle: saline with Tween-80 100 % of control | [8] 88 % of control

COCc1cc(C(C)(C)C)c(O)c(C(C)(C)C)c1
inactive: [1] 94 % of control | [3] 98 % of control | [4] 89 % of control | [6] 96 % of control | [11] 89 % of control | [7] 88 % of control

Cc1ncc(CCO)c(CO)c1O
inactive: [8] 104 % of control | [9] 101 % of control | [10] 106 % of control

Cc1cnc(C(=O)O)c(N)n1
inactive: dose: 75.0 mg/kg/injection, schedule: Q01DX001 (ip), vehicle: saline 105 % of control | dose: 150.0 mg/kg/injection, schedule: Q01DX001 (ip), vehicle: saline 93 % of control

Cc1cc(NS(=O)(=O)c2ccc(N=Nc3c(N)n(C)c(=O)n(C)c3=O)cc2)nc(C)n1
inactive: dose: 100.0 mg/kg/injection, schedule: Q01DX001 (ip), vehicle: carboxymethylcellulose (CMC) 89 % of control | dose: 200.0 mg/kg/injection, schedule: Q01DX001 (ip), vehicle: carboxymethylcellulose (CMC) 104 % of control | dose: 400.0 mg/kg/injection, schedule: Q01DX001 (ip), vehicle: carboxymethylcellulose (CMC) 101 % of control

Source: PubChem BioAssay AID248 (DTP/NCI, 2004)
